We go through five compounds from ChEMBL document CHEMBL5042519, “Design and synthesis of marine sesterterpene analogues as novel estrogen receptor α degraders for breast cancer treatment” (Eur J Med Chem, 2022).

The source made the active and inactive calls. The calls are words filed in the database; no cut-off is given here.

The nature of data set [1]: Antiproliferative activity against human MCF-10A cells assessed as reduction in cell viability after 48 hrs by MTT assay. Type of data set: toxicity, cell-based.
Data set [2] relates to MCF7. Nature of the data set: Antiproliferative activity against human MCF7 cells assessed as reduction in cell viability after 48 hrs by MTT assay. Type of data set: functional, cell-based. Conditions: MCF7, 48 h. (Tetrazolium assays rely on reduction of a dye to a coloured formazan, in cell work by metabolically active cells.)
The test system of data set [3] is MCF7. Put plainly: Antiproliferative activity against human MCF7/ADR cells assessed as reduction in cell viability after 48 hrs by MTT assay. Conditions: MCF7, 48 h. It counts as functional, cell-based.
Data set [4] can be described thus: Resistance index, ratio of IC50 for antiproliferative activity against human MCF7/ADR cells to IC50 for antiproliferative activity against human MCF7 cells. Type of data set: functional.
The subject of the next data set is MDA-MB-231. Put plainly: Antiproliferative activity against human MDA-MB-231 cells assessed as reduction in cell viability after 48 hrs by MTT assay. To be noted: MDA-MB-231, 48 h.
The nature of data set [5]: Selectivity index, ratio of IC50 for antiproliferative activity against human MCF-10A cells to IC50 for antiproliferative activity against human MDA-MB-231 cells by MTT assay. It counts as toxicity, cell-based. Conditions: MCF-10A cells versus MDA-MB-231 cells, read-out: Ratio IC50.
In data set [6] the target is T1, Estrogen receptor (Homo sapiens) (UniProt P03372).
T1 sequence (whole entry): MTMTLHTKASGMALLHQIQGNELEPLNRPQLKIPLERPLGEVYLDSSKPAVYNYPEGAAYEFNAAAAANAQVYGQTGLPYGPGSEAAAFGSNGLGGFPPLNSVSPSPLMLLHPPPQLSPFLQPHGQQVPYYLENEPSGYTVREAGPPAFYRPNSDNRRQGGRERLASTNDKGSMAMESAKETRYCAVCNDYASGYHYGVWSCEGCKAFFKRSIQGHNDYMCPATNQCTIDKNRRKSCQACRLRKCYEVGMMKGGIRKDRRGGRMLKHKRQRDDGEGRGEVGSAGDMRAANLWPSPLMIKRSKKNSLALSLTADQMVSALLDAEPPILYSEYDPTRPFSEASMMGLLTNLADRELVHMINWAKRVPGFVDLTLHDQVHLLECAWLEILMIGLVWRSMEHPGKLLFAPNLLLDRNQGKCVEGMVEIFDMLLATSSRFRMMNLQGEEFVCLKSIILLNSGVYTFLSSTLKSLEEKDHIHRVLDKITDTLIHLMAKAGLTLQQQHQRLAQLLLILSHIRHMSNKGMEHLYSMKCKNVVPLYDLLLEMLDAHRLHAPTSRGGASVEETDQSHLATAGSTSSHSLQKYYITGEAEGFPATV
Nature of the data set: Induction of ERalpha degradation in human MCF7 cells assessed as decrease in ERalpha protein expression at 1 uM incubated for 24 hrs by Western blot analysis. Type of data set: cell-based.

A short description of data set [7]: Metabolic stability in rat plasma assessed as parent compound remaining incubated for 60 mins in presence of NADPH by UPLC-MS analysis. Type of data set: ADME, cell-free. To be noted: read-out: Stability.
Data set [8] is described as follows: Metabolic stability in rat liver microsomes assessed as assessed as intrinsic clearance incubated for 60 mins in presence of NADPH by UPLC-MS analysis. Conditions: read-out: CLH. It counts as ADME, Microsome. For orientation: Liver microsomes are a subcellular fraction often used to study metabolism.

Broadly, the IC50 is the point on the concentration scale where inhibition reaches its midpoint. Consider `CCCCCCOC(=O)/C=C\C=C/[C@H](C)[C@H]1CC[C@]2(C)C[C@@H]3C(C)=CC(=O)[C@H]3/C(C=O)=C\C[C@@H]12`, for which the IC50 at 48 h in data set [1] came out at 1580 nM. Further, the IC50 worked out at 1040 nM in the data set on MCF7 [2], 790 nM in the data set with MCF7 [3] and 640 nM in the data set with MDA-MB-231. For the same compound, the “Ratio IC50” value in [4] turned out to be 0.76. Further, the selectivity ratio in data set [5] turned out to be 1.52. Besides, the result in [6] was Active.

In the case of `CCCCCCCCOC(=O)/C=C/[C@H](C)[C@H]1CC[C@]2(C)C[C@@H]3C(C)=CC(=O)[C@H]3/C(C=O)=C\C[C@@H]12`, the IC50 at 48 h in data set [1] stood at 1570 nM. The figures for the IC50 in the data set on MCF7 [2], in the data set on MCF7 [3] and in the data set on MDA-MB-231 were 1420 nM, 520 nM and 420 nM, respectively. Further, the “Ratio IC50” value in [4] worked out at 0.37. In addition, the selectivity ratio in data set [5] amounted to 1.11.

For `CC1=CC(=O)[C@H]2/C(C=O)=C\C[C@H]3[C@@H]([C@@H](C)/C=C\C=C/C(=O)OCCOCCOC(=O)CC45CC6CC(CC(C6)C4)C5)CC[C@]3(C)C[C@H]12`, the IC50 at 48 h in [1] came to 2400 nM. For the same compound, the IC50 worked out at 690 nM with MCF7 [2], 870 nM in the data set on MCF7 [3] and 540 nM in the data set on MDA-MB-231. Also, the “Ratio IC50” value in data set [4] is given as 1.26. Moreover, the selectivity ratio in [5] came to 3.48. Moreover, the outcome in [6] was Active.

As for `CCCCCCCCCOC(=O)/C=C\C=C/[C@H](C)[C@H]1CC[C@]2(C)C[C@@H]3C(C)=CC(=O)[C@H]3/C(C=O)=C\C[C@@H]12`, the IC50 at 48 h in [1] was 4830 nM. Moreover, the values for the IC50 with MCF7 [2], with MCF7 [3] and in the data set on MDA-MB-231 were 2530 nM, 1120 nM and 770 nM, respectively. In addition, the “Ratio IC50” value in [4] was 0.44. Moreover, the selectivity ratio in data set [5] was found to be 1.91.

`CC(C)=C/C=C\[C@H](C)[C@H]1CC[C@]2(C)C[C@@H]3C(C)=CC(=O)[C@H]3/C(C=O)=C\C[C@@H]12`: the IC50 at 48 h in data set [1] came to 3680 nM. The IC50 in the data set on MCF7 [2] is 3920 nM; in the data set with MCF7 [3], 2480 nM; with MDA-MB-231, 2100 nM. Besides, the “Ratio IC50” value in data set [4] is given as 0.63. Moreover, the selectivity ratio in data set [5] amounted to 0.94. For the same compound, in [6], the result was Active. Besides, the remaining at 1 h in [7] was determined as 97%. Moreover, the microsomal CLint in [8] was 14.5 µL/min/mg.
